Reference: ChEMBL document CHEMBL4476865, “Neurotrypsin inhibitors” (2013)

Columns and labels:
Neurotrypsin = target: T1, Neurotrypsin (Homo sapiens, UniProt P56730); experiment: Inhibition of human neurotrypsin
T1 sequence (P56730 whole entry): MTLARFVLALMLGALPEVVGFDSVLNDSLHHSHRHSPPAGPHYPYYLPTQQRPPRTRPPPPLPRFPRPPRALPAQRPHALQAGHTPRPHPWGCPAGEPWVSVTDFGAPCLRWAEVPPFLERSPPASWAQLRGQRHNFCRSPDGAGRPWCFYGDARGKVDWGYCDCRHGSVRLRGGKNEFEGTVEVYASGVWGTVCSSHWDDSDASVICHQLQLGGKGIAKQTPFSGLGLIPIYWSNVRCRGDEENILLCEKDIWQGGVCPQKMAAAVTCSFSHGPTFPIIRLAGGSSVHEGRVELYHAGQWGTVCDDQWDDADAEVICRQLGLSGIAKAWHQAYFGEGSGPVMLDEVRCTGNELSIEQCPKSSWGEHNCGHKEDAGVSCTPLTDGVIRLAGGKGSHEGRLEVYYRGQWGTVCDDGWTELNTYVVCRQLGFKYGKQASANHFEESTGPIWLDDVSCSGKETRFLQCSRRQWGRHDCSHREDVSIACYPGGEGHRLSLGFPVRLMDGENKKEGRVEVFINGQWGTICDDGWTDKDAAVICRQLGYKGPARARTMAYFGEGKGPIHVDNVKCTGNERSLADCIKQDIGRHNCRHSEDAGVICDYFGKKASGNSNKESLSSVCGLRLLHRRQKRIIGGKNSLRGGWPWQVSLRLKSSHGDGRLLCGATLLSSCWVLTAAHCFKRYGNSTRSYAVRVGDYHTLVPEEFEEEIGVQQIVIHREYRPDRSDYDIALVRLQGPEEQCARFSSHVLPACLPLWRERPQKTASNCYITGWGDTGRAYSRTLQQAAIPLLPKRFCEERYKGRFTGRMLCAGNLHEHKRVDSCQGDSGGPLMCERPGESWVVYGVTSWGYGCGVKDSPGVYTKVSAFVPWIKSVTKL

[1] = Inhibition of hog trypsin assessed as reduction in liberation of free para-nitroanilide using S-2222 substrate incubated for 20 to 30 mins; design: species or system Sus scrofa
[2] = Toxicity in C57/BL6 mouse assessed as weight loss dosed 3 times at 25 mg/kg, ip equivalent of active ingredient administered with 8 hrs gap between dose 1 and dose 2 and 16 hrs gap between dose 2 and dose 3 (reference value: 5.67%); format: organism-based; conditions: in vivo

IC50 (Neurotrypsin) [µM]	IC50 [1] [µM]	Structure (SMILES)	Activity [2] [%]
3.3	–	O=C(NCc1ccc(Cl)s1)c1ccc(NC(=O)c2ccc(-c3nc4cc(Cl)c(Cl)cc4[nH]3)cc2)c(C(=O)O)c1	–
–	> 150	NCCCC[C@H](N)C(=O)O.O=C(Nc1ccc(Cl)cc1)c1ccc(NC(=O)c2ccc(-c3nc4cc(Cl)c(Cl)cc4[nH]3)cc2)c(C(=O)O)c1	5.52
